This note sets out measurements from ChEMBL document CHEMBL5241065, “If small molecules immunotherapy comes, can the prime be far behind?” (Eur J Med Chem, 2021).

Test [1] addresses Tyrosine-protein phosphatase non-receptor type 11 (Homo sapiens, UniProt Q06124, Q257L/T253M). Nature of the test: Inhibition of SHP2 T253M/Q257L mutant (unknown origin).
In test [2] the target is Tyrosine-protein phosphatase non-receptor type 11 (Homo sapiens, UniProt Q06124). Briefly: Inhibition of SHP2 1-525 mutant (unknown origin).
For test [3], the target named is T1, Arginase-1 (Homo sapiens, UniProt P05089).
T1 sequence (P05089 whole entry): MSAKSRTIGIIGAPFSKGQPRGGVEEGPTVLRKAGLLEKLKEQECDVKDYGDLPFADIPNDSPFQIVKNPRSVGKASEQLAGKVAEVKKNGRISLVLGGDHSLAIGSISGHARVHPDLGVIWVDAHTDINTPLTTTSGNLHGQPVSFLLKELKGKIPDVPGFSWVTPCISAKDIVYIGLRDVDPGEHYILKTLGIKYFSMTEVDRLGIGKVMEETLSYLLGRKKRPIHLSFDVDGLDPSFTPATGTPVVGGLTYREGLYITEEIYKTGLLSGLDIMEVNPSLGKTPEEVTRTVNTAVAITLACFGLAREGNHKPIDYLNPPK

The target of test [4] is T2, Arginase-2, mitochondrial (Homo sapiens, UniProt P78540).
T2 sequence (P78540 whole entry): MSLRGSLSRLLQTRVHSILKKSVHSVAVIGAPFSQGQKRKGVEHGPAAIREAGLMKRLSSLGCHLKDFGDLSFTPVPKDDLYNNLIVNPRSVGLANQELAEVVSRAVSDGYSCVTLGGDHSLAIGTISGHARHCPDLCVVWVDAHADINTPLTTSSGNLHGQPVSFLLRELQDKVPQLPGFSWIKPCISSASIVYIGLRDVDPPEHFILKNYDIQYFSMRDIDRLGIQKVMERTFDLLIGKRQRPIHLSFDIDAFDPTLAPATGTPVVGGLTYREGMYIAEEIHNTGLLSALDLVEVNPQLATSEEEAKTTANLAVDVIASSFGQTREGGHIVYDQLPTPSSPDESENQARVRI

Test [5] concerns the target T1, Arginase-1. Nature of the test: Inhibition of recombinant human ARG1 expressed in Escherichia coli using L-arginine hydrochloride as substrate incubated for 1 hr by colorimetric assay.
The target of test [6] is Tyrosine-protein phosphatase non-receptor type 6 (Homo sapiens, UniProt P29350).
Chain of Tyrosine-protein phosphatase non-receptor type 6 (P29350 whole entry): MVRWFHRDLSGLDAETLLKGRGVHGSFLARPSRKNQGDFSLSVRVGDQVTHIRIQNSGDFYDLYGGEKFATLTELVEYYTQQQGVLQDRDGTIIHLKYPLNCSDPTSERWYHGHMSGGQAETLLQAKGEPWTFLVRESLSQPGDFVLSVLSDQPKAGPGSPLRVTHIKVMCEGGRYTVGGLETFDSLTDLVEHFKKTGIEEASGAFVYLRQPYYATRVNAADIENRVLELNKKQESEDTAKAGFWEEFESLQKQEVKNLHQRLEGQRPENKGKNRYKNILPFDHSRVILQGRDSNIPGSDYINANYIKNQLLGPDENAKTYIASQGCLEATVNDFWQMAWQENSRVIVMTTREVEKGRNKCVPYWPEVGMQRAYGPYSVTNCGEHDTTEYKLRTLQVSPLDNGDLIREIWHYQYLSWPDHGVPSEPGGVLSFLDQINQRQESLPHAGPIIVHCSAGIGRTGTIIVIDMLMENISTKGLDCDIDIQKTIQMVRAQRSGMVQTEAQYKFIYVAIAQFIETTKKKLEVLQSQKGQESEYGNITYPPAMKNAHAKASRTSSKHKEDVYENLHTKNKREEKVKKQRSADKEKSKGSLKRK
Test [7] concerns the target T3, Tyrosine-protein phosphatase non-receptor type 1 (Homo sapiens, UniProt P18031).
T3 sequence (P18031 whole entry): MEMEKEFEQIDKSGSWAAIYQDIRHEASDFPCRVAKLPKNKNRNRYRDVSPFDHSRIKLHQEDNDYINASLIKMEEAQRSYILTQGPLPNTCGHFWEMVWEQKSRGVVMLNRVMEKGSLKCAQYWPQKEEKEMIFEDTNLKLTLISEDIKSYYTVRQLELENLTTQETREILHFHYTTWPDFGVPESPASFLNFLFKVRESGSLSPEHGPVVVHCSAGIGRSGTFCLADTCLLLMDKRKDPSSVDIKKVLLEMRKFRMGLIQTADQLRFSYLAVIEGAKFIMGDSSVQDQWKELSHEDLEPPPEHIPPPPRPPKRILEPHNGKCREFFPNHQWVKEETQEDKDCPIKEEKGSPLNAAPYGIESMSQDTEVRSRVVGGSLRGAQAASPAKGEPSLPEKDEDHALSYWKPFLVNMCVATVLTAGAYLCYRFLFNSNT

Test [8] deals with Programmed cell death 1 ligand 1 (Homo sapiens, UniProt Q9NZQ7).
Chain of Programmed cell death 1 ligand 1 (Q9NZQ7 whole entry): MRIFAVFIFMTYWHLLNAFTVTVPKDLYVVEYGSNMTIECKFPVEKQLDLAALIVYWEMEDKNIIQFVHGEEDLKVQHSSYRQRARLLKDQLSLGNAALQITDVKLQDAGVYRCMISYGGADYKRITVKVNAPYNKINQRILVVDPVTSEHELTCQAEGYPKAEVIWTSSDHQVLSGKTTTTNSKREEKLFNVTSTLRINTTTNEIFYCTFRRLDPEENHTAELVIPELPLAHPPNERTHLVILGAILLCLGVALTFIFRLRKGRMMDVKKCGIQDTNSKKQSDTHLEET
For test [9], the target named is Tyrosine-protein phosphatase non-receptor type 11 (Homo sapiens, UniProt Q06124, E76K). Briefly: Inhibition of SHP2 (unknown origin) E76K mutant.
Chain of Tyrosine-protein phosphatase non-receptor type 11 (Homo sapiens, UniProt Q06124, E76K) (Q06124 2-593 E76K limits assumed): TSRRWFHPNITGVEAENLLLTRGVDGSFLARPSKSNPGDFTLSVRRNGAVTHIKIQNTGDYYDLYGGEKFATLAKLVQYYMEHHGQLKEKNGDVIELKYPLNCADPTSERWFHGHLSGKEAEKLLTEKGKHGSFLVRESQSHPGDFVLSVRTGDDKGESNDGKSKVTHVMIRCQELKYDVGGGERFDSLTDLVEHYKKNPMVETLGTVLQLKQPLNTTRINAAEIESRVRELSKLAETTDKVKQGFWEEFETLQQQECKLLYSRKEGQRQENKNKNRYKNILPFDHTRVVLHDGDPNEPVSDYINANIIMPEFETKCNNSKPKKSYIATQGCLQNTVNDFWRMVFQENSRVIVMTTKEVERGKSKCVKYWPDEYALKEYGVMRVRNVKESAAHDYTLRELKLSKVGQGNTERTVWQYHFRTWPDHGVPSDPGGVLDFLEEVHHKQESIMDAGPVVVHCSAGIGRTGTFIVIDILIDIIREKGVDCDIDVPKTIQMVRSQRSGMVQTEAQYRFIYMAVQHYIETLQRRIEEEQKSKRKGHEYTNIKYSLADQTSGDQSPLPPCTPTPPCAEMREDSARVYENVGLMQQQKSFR
Test [10] deals with T4, Tyrosine-protein phosphatase non-receptor type 11 (Homo sapiens, UniProt Q06124).
T4 sequence (Q06124 whole entry): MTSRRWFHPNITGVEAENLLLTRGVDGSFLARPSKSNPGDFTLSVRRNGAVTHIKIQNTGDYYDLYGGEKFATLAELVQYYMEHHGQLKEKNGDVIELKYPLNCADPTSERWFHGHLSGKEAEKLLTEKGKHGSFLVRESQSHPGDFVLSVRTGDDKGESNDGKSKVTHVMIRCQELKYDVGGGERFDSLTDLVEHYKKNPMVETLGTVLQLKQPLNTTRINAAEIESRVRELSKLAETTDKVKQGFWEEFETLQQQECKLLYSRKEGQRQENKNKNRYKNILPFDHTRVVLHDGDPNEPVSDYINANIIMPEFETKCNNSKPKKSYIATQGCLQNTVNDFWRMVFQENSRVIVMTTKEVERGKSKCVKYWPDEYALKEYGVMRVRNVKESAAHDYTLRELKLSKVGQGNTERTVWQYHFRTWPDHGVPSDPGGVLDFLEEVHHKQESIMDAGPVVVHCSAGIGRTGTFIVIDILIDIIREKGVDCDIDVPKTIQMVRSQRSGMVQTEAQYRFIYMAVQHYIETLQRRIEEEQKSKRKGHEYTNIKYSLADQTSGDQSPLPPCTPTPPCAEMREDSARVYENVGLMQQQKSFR

Test [11] addresses T4, Tyrosine-protein phosphatase non-receptor type 11. Nature of the test: Inhibition of SHP (unknown origin).
The target is the same in test [12]. Briefly: Inhibition of SHP2 (unknown origin) at 100 mg/mL.
For test [13] the target is unchanged. The source holds these as a separate data set.
For test [14] the target is unchanged. The source holds these as a separate data set.
Test [15] concerns the target T5, Arginase-1 (Mus musculus, UniProt Q61176).
T5 sequence (Q61176 whole entry): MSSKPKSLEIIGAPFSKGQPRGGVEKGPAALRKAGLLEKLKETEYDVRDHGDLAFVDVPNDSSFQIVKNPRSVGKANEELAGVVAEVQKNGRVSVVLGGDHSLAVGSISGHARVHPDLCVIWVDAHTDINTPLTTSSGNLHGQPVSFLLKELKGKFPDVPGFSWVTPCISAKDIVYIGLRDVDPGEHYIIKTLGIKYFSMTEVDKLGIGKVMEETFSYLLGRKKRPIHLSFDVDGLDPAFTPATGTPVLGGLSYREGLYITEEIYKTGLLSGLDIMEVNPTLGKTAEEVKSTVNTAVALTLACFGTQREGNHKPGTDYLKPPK
Nature of the test: Inhibition of mouse ARG1.

In test [16] the target is T2, Arginase-2, mitochondrial. Briefly: Inhibition of recombinant human ARG2 expressed in Escherichia coli using L-arginine hydrochloride as substrate incubated for 1 hr by colorimetric assay.
For a further test, the system named is L929. Nature of the test: cells. The settings on record: Mus musculus.
The target of test [17] is T6, Stimulator of interferon genes protein (Homo sapiens, UniProt Q86WV6). Nature of the test: Agonist activity at STING in human THP1-Dual cells assessed as increase in IFN-beta secretion incubated for 24 hrs. The test is classed as cell-based, THP-1.
T6 sequence (Q86WV6 whole entry): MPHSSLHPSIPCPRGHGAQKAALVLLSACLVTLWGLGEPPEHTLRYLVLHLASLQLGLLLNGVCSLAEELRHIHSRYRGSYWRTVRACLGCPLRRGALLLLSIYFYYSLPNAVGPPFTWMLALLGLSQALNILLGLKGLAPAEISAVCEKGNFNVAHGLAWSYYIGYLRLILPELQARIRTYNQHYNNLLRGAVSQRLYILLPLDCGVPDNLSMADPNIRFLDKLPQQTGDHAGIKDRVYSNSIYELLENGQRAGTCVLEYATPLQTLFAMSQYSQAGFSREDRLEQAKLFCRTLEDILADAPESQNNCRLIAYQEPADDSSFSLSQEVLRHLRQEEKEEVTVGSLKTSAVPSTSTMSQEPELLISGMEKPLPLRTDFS
The target in test [18] is Tyrosine-protein kinase BTK (Homo sapiens, UniProt Q06187).
Chain of Tyrosine-protein kinase BTK (Q06187 whole entry): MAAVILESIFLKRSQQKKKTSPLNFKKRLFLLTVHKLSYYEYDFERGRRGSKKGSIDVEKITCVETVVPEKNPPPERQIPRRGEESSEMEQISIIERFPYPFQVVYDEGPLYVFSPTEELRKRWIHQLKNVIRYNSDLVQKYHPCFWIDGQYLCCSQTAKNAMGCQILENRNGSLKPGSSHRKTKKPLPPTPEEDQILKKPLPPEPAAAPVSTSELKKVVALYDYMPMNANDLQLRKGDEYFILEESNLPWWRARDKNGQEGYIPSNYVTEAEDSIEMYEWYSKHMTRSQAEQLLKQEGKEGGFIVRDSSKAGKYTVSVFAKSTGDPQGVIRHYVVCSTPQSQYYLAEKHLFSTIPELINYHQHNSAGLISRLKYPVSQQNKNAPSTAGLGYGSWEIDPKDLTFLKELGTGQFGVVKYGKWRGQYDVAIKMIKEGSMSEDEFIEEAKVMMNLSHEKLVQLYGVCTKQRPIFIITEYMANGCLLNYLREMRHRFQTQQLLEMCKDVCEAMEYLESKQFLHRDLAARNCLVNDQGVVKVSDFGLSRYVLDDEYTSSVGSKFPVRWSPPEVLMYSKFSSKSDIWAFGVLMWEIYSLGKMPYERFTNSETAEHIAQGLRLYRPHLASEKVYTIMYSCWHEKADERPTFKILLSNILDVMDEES
The nature of test [19]: Agonist activity at IFNalpha (unknown origin). On the set-up: species or system Homo sapiens.
The nature of test [20]: Agonist activity at TNFalpha (unknown origin). Also on record: species or system Homo sapiens.
In test [21] the target is T6, Stimulator of interferon genes protein. Nature of the test: Binding affinity to human STING assessed as dissociation constant by surface plasmon resonance. For orientation: In SPR one partner is held on a chip, and binding of the other changes the refractive index at the surface.
Test [22] is described as follows: Binding affinity to A2aR (unknown origin). Also on record: species or system Homo sapiens.

Chain of Tyrosine-protein phosphatase non-receptor type 11 (Homo sapiens, UniProt Q06124, Q257L/T253M) (Q06124 2-593 T253M/Q257L limits assumed): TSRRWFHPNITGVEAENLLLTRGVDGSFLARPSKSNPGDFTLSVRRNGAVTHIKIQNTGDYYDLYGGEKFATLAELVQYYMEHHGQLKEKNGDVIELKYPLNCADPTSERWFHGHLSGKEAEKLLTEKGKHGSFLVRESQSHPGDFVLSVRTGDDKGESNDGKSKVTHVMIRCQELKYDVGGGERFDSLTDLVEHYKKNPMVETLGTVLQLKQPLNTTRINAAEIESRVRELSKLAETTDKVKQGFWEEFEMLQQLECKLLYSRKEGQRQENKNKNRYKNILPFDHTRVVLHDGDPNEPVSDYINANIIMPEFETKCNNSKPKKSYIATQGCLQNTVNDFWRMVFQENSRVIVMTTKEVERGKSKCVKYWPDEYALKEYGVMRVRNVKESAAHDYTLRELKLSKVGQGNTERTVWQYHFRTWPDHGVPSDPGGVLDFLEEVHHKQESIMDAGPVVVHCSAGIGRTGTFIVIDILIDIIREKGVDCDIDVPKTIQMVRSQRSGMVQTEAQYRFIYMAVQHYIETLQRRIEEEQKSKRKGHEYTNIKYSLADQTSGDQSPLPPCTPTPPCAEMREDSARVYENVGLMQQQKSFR

Turning to `COc1cccc(-c2nnc3n(Cc4ccccc4Cl)c(=O)c4ccccc4n23)c1O`, the IC50 in test [1] and in test [2] was 60000 nM in each case.

As to `N[C@@H](CCCCB(O)O)C(=O)O`, the concentration for half-maximal inhibition (IC50) (in general, the midpoint of a concentration-inhibition curve) at Arginase-1 [3] worked out at 5 nM; in test [4], 8.5 nM.

For the compound `N[C@](CCCCB(O)O)(CCN1CCCCC1)C(=O)O`, the IC50 on Arginase-1 [5] came out at 509 nM.

On to `N=C(NO)NCCC[C@H](N)C(=O)O`, for which the half-maximal inhibitory concentration (IC50) came out at 150 nM at Arginase-1 [5], 3600 nM at Arginase-1 [3] and 1600 nM in test [4].

Take `N[C@@H](CSCCB(O)O)C(=O)O`: the IC50 stood at 270 nM against Arginase-1 [3] and 30 nM in test [4].

On to `O=S(=O)(O)c1ccc2cc(/N=N/c3cc(S(=O)(=O)O)c4cccnc4c3O)ccc2c1`, for which the IC50 in [6] was 335 nM; in test [7], 14300 nM.

`N#Cc1cncc(COc2cc(OC3CCc4c(-c5ccccc5)cccc43)c(Cl)cc2CN[C@@H](CO)C(=O)O)c1` (some centres undefined): the IC50 in test [8] was less than 100 nM.

`O=C1Nc2ccc(S(=O)(=O)NCc3ccc(F)cc3)cc2/C1=N/Nc1cccc(C(=O)O)c1` displayed a concentration for half-maximal inhibition (IC50) in test [7] of 1690 nM.

In the case of `CCOc1cc(O)c(C(=O)/C=C/c2ccc(Cl)cc2Cl)cc1CN1CCC=C(C2C(=O)Nc3ccccc32)C1` (centres undefined), the half-inhibitory concentration (IC50) in test [9] came out at 7670 nM; in test [10], 9.8 nM.

For `C[C@@H]1OCC2(CCN(c3nc(N)c(Sc4cccnc4C(F)(F)F)c(=O)n3O)CC2)[C@@H]1N`, the 50% inhibitory concentration (IC50) in test [11] and in test [10] was 23 nM throughout.

Turning to `COC(=O)c1cccc(N/N=C2\C(=O)Nc3ccc(S(=O)(=O)NCc4ccc(F)cc4)cc32)c1`, the IC50 in test [12] is greater than 100000 nM.

In the case of `CCOC(=O)c1ccc(N2NC(c3ccc([N+](=O)[O-])cc3)/C(=N/Nc3ccc(S(=O)(=O)O)cc3)C2=O)cc1` (centres undefined), the concentration for half-maximal inhibition (IC50) in [13] was 630 nM; in test [6] it was 1800 nM; in test [7], 19000 nM.

As to `O=C1Nc2cc(S(=O)(=O)O)ccc2C1/N=N/c1ccccc1[N+](=O)[O-]` (centres undefined), the half-inhibitory concentration (IC50) in [13] and in test [14] was 47000 nM each time.

With `OC[C@H]1O[C@H](Oc2cc(/C=C/c3cc(O)cc(O)c3)ccc2O)[C@H](O)[C@@H](O)[C@@H]1O`, at Arginase-1 [15], the concentration for half-maximal inhibition (IC50) amounted to 11200 nM.

As for `N[C@@](CCCCB(O)O)(C(=O)O)C1CCN(Cc2ccc(Cl)c(Cl)c2)CC1`, the IC50 at Arginase-1 [5] is 200 nM; in test [16], 290 nM.

In the case of `NC(CCCCB(O)O)(C(=O)O)C1CCN(Cc2ccc(Cl)cc2Cl)CC1` (centres undefined), the 50% inhibitory concentration (IC50) at Arginase-1 [5] was found to be 86 nM; in test [16], 296 nM.

In the case of `O=C1/C(=N\Nc2ccc(S(=O)(=O)O)cc2)C(c2ccc([N+](=O)[O-])cc2)NN1c1ccccc1` (centres undefined), the IC50 is 30000 nM in test [13], 30000 nM in [6] and 14500 nM in test [7].

Take `Cc1nc(N2CCC(C)(N)CC2)c(CO)nc1-c1cccc(Cl)c1Cl`: in [11], the IC50 is 71 nM.

Turning to `NC1=NC2C(N=CN2[C@@H]2O[C@@H]3COP(=O)(O)O[C@H]4[C@@H](O)[C@H](N5C=NC6C(=O)NC(N)=NC65)O[C@@H]4COP(=O)(O)O[C@H]3[C@H]2O)C(=O)N1` (some centres undefined), the EC50 (commonly the concentration that produces a half-maximal response) in the test with L929 is greater than 500 nM.

`Cn1cc(-c2cn(CC(=O)Nc3nc4ccccc4s3)nn2)c2cc(C(=O)O)c(O)cc21`: the results for the concentration for half-maximal inhibition (IC50) in test [13], in test [6] and in [7] were 5500 nM, 15700 nM and 2100 nM, respectively.

In the case of `CCn1nc(C)cc1C(=O)/C=C1\Nc2cc(C(N)=O)cc(CCCN3CCOCC3)c2N1C/C=C/CN1/C(=C/C(=O)c2cc(C)nn2CC)Nc2cc(C(N)=O)cc(OC)c21`, the half-maximal effective concentration (EC50) in test [17] was determined as 130 nM.

In the case of `Cc1c(-c2c(F)cc(C(N)=O)c3[nH]c4c(c23)CC[C@H](C(C)(C)O)C4)cccc1N1C(=O)c2cccc(F)c2C(C)C1=O` (some centres undefined), in test [18], the IC50 was found to be 0.5 nM.

On to `CCC[C@H](C)Oc1nc(N)c2[nH]c(=O)n(CCCCCN3CCCCC3)c2n1` [GSK-2245035], for which the negative-log EC50 (pEC50) (in general, the EC50 on a negative log10 scale, so that one unit is a factor of ten) in test [19] was 9.3; in test [20], 6.5.

Consider `COc1c(O)cc2oc3cc(O)c(CC=C(C)C)c(O)c3c(=O)c2c1CC=C(C)C` [MANGOSTIN], for which, in [21], the equilibrium dissociation constant (Kd) – broadly, the concentration at which binding is half-saturated – was 137000 nM.

Consider `N=C(NO)NCC[C@H](N)C(=O)O` [NOR-NOHA], for which half-maximal inhibition in test [4] (IC50) was put at 51 nM.

Regarding `Nc1nc(-n2cccn2)nc(-n2cccn2)c1Br` [PBF-509], the affinity in [22] corresponds to a Ki of 8.2 nM.
